# Laboratory results as given in US7977387B2, “Aminobenzophenone compounds” (Leo Pharma A/S, priority 2003, dated 2011).
# Tests used:
# [1] = system: LPS induced TNF-α response; assay: In vivo screening model of LPS induced TNF-α response in mice; conditions: Mus musculus, mice (C3H/HeN), dosed 1 hour prior to LPS, plasma TNF-α 80-90 minutes after LPS, vs LPS treated control group, read-out: In vivo inhibition of LPS induced TNF-α production (in %)
# Description: In Vivo Screening Model of LPS Induced TNF-α Response in Mice
# To study the effect of compounds of the present invention in vivo, an in vivo screening model of LPS induced TNF-α response in mice was set up as follows: Groups of 6 mice (C3H/HeN, female, about 8 weeks (20 g), Bomholtgaard) were dosed with test compounds in suspension vehicle 1 hour prior to LPS administration (LPS from E. coli 055:B5, L-4005, Sigma). At time 0, the mice were dosed ip with 1.0 mg LPS/kg. After anesthetization with Hypnorm/Dormicum, the mice were bled from the periorbital venous plexus 80-90 minutes after LPS administration. The blood samples were sampled in EDTA stabilised tubes and centrifuged at 4000 rpm for 10 minutes at 4° C. The plasma level of TNF-α was analysed by ELISA. Compound 156 of WO 98/32730 was used as reference compound. The plasma level of TNF-α was determined using a sandwich ELISA. Microtiter plates were coated with a monoclonal antibody against mouse TNF-α, washed and blocked with a casein buffer. Samples of mouse TNF-α recombinant standards were added to the wells of the microtiter plates and incubated. All standards were tested in triplicate, all plasma samples in single. After sample and standard incubation, the plates were washed and incubated with biotinylated polyclonal secondary antibody against mouse TNF-α and washed. Enzyme conjugate was added to all wells and incubated. Substrate was added and the enzyme/substrate reaction stopped after 15 minutes at room temperature with 1M H2SO4. The colour development (OD) was measured at 450 nm on an ELISA reader and the background OD at 620 nm was subtracted. […] The results of the tested compounds are indicated as a percentage inhibition compared to an LPS treated control group. Compounds were tested at 10 mg/kg. The Mann-Whitney test was used to compare drug treated groups to the LPS treated control group (p<0.05).
# TNF-α = assay: Inhibition of TNF-α secretion in LPS stimulated peripheral blood mononuclear cells; assay type: cell-based; conditions: PBMC; LPS stimulated human peripheral blood mononuclear cells, 18 hours, ELISA; read-out: The median inhibition concentration (IC50, nM) of TNF-α
# Outline: (§1)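 Human PBMCs (5×10^5 cells/ml, RPMI 1640 + 2% FCS) pre-treated with compound 30 min, then stimulated with LPS ([…]) for 18 h. Secreted IL-1β and TNF-α quantified by ELISA; IC50 values calculated.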
# IL-1β = assay: Inhibition of IL-1β secretion in LPS stimulated peripheral blood mononuclear cells; assay type: cell-based; conditions: PBMC; LPS stimulated human peripheral blood mononuclear cells, 18 hours, ELISA; read-out: The median inhibition concentration (IC50, nM) of IL-1β
# Outline: as §1
IC50 (TNF-α),IC50 (IL-1β),Compound,inhibition at 10 mg/kg [1]
0.2 nM,0.6 nM,"Cc1ccc(C(=O)NCC(F)(F)F)cc1C(=O)c1ccc(Nc2ccc(F)cc2F)cc1Cl [Compound 148, 3-[2-Chloro-4-(2,4-difluoro-phenylamino)-benzoyl]-4-methyl-N-(2,2,2-trifluoro-ethyl) benzamide]",71%
0.5 nM,1.6 nM,"CCNC(=O)c1ccc(C)c(C(=O)c2ccc(Nc3ccc(F)cc3F)cc2Cl)c1 [Compound 149, 3-[2-Chloro-4-(2,4-difluoro-phenylamino)-benzoyl]-N-ethyl-4-methyl-benzamide]",89%
0.4 nM,1.8 nM,"Cc1ccc(C(=O)NCC(C)O)cc1C(=O)c1ccc(Nc2ccc(F)cc2F)cc1Cl (stereo not drawn) [Compound 151, 3-[2-Chloro-4-(2,4-difluoro-phenylamino)-benzoyl]-N-(2-hydroxy-propyl)-4-methyl-benzamide]",99%
0.6 nM,2.8 nM,"Cc1ccc(C(=O)NCC(O)CO)cc1C(=O)c1ccc(Nc2ccc(F)cc2F)cc1Cl (stereo not drawn) [Compound 152, 3-[2-Chloro-4-(2,4-difluoro-phenylamino)-benzoyl]-N-(2,3-dihydroxy-propyl)-4-methyl-benzamide]",99%
1.6 nM,8.9 nM,"CCC(CO)NC(=O)c1ccc(C)c(C(=O)c2ccc(Nc3ccc(F)cc3F)cc2Cl)c1 (stereo not drawn) [Compound 153, 3-[2-Chloro-4-(2,4-difluoro-phenylamino)-benzoyl]-N-(1-hydroxymethyl-propyl)-4-methyl-benzamide]",86%
0.2 nM,0.6 nM,"Cc1ccc(C(=O)NCCCO)cc1C(=O)c1ccc(Nc2ccc(F)cc2F)cc1Cl [Compound 155, 3-[2-Chloro-4-(2,4-difluoro-phenylamino)-benzoyl]-N-(3-hydroxy-propyl)-4-methyl-benzamide]",91%
0.9 nM,4.5 nM,"Cc1ccc(C(=O)NC(C)(C)CO)cc1C(=O)c1ccc(Nc2ccc(F)cc2F)cc1Cl [Compound 156, 3-[2-Chloro-4-(2,4-difluoro-phenylamino)-benzoyl]-N-(2-hydroxy-1,1-dimethyl-ethyl)-4-methyl-benzamide]",73%
0.9 nM,2.2 nM,"Cc1ccc(C(=O)NC(C)(CO)CO)cc1C(=O)c1ccc(Nc2ccc(F)cc2F)cc1Cl [Compound 157, 3-[2-Chloro-4-(2,4-difluoro-phenylamino)-benzoyl]-N-(2-hydroxy-1-hydroxymethyl-1-methyl-ethyl)-4-methyl-benzamide]",83%
2.5 nM,2.5 nM,"Cc1ccc(C(=O)NCCF)cc1C(=O)c1ccc(Nc2ccc(F)cc2F)cc1 [Compound 163, 3-[4-(2,4-Difluoro-phenylamino)-benzoyl]-N-(2-fluoro-ethyl)-4-methyl-benzamide]",66%
2 nM,1.3 nM,"Cc1ccc(C(=O)NC(C)C)cc1C(=O)c1ccc(Nc2ccc(F)cc2F)cc1Cl [Compound 164, 3-[2-Chloro-4-(2,4-difluoro-phenylamino)-benzoyl]-N-isopropyl-4-methyl-benzamide]",76%
0.4 nM,0.5 nM,Cc1ccc(C(=O)NCC(F)F)cc1C(=O)c1ccc(Nc2ccc(F)cc2F)cc1Cl [Compound 166],83%
2.5 nM,3.2 nM,"C=CCNC(=O)c1ccc(C)c(C(=O)c2ccc(Nc3ccc(F)cc3F)cc2Cl)c1 [Compound 170, N-Allyl-3-[2-chloro-4-(2,4-difluoro-phenylamino)-benzoyl]-4-methyl-benzamide]",87%
2 nM,2.5 nM,"COc1ccc(C(=O)NCCO)cc1C(=O)c1ccc(Nc2c(F)cccc2F)cc1Cl [Compound 173, 3-[2-Chloro-4-(2,6-difluoro-phenylamino)-benzoyl]-N-(2-hydroxy-ethyl)-4-methoxy-benzamide]",90%
2 nM,3.2 nM,COc1ccc(C(=O)NCCF)cc1C(=O)c1ccc(Nc2c(F)cccc2F)cc1Cl [Compound 174],64%
2 nM,3.2 nM,"COc1ccc(C(=O)NCCCO)cc1C(=O)c1ccc(Nc2c(F)cccc2F)cc1Cl [Compound 176, 3-[2-Chloro-4-(2,6-difluoro-phenylamino)-benzoyl]-N-(3-hydroxy-propyl)-4-methoxy-benzamide]",52%
1.6 nM,6.3 nM,"COc1ccc(C(=O)NC(C)(C)CO)cc1C(=O)c1ccc(Nc2c(F)cccc2F)cc1Cl [Compound 178, 3-[2-Chloro-4-(2,6-difluoro-phenylamino)-benzoyl]-N-(2-hydroxy-1,1-dimethyl-ethyl)-4-methoxy-benzamide]",67%
0.5 nM,0.8 nM,"Cc1ccc(C(=O)NCCO)cc1C(=O)c1ccc(Nc2cccc(F)c2C)cc1Cl [Compound 186, 3-[2-Chloro-4-(3-fluoro-2-methyl-phenylamino)-benzoyl]-N-(2-hydroxy-ethyl)-4-methyl-benzamide]",92%
0.5 nM,0.9 nM,"Cc1ccc(C(=O)NCCO)cc1C(=O)c1ccc(Nc2ccc(F)cc2Cl)cc1Cl [Compound 188, 3-[2-Chloro-4-(2-chloro-4-fluoro-phenylamino)-benzoyl]-N-(2-hydroxy-ethyl)-4-methyl-benzamide]",95%
1 nM,3.2 nM,"COc1ccc(C(=O)NCC(F)F)cc1C(=O)c1ccc(Nc2ccc(F)cc2)cc1Cl [Compound 196, 3-[2-Chloro-4-(4-fluoro-phenylamino)-benzoyl]-N-(2,2-difluoro-ethyl)-4-methoxy-benzamide]",66%
0.4 nM,1.1 nM,"COc1ccc(C(=O)NCC(O)CO)cc1C(=O)c1ccc(Nc2ccc(F)cc2)cc1Cl (stereo not drawn) [Compound 198, 3-[2-Chloro-4-(4-fluoro-phenylamino)-benzoyl]-N-(2,3-dihydroxy-propyl)-4-methoxy-benzamide]",76%
2 nM,5 nM,"COc1ccc(C(=O)NCC(O)CO)cc1C(=O)c1ccc(Nc2ccccc2)cc1Cl (stereo not drawn) [Compound 202, 3-(2-Chloro-4-phenylamino-benzoyl)-N-(2,3-dihydroxy-propyl)-4-methoxy-benzamide]",67%
0.4 nM,1.1 nM,"CSCCC(=O)Nc1ccc(C)c(C(=O)c2ccc(Nc3ccc(F)cc3F)cc2Cl)c1 [Compound 251, N-{3-[2-Chloro-4-(2,4-difluoro-phenylamino)-benzoyl]-4-methyl-phenyl}-3-methylsulfanyl-propionamide]",49%
0.5 nM,1.8 nM,"Cc1ccc(NC(=O)NCCO)cc1C(=O)c1ccc(Nc2ccc(F)cc2F)cc1Cl [Compound 260, 1-{3-[2-Chloro-4-(2,4-difluoro-phenylamino)-benzoyl]-4-methyl-phenyl}-3-(2-hydroxy-ethyl)-urea]",95%
0.3 nM,1 nM,"CCCNC(=O)Nc1ccc(C)c(C(=O)c2ccc(Nc3ccc(F)cc3F)cc2Cl)c1 [Compound 264, 1-{3-[2-Chloro-4-(2,4-difluoro-phenylamino)-benzoyl]-4-methyl-phenyl}-3-propyl-urea]",87%
0.4 nM,0.9 nM,"Cc1ccc(NC(=O)NC2CCCCC2)cc1C(=O)c1ccc(Nc2ccc(F)cc2F)cc1Cl [Compound 266, 1-{3-[2-Chloro-4-(2,4-difluoro-phenylamino)-benzoyl]-4-methyl-phenyl}-3-cyclohexyl-urea]",54%
0.6 nM,1.3 nM,"C=CCOC(=O)Nc1ccc(C)c(C(=O)c2ccc(Nc3ccc(F)cc3F)cc2Cl)c1 [Compound 278, {3-[2-Chloro-4-(2,4-difluoro-phenylamino)-benzoyl]-4-methyl-phenyl}-carbamic acid allyl ester]",65%
